“And” between values parts separate entries of the source, which are not always exact repeats. Equal entries are not always repeated.
Tests used:
[1] = 100 kPa
[2] = xn = mol fraction of the nth substance listed

CCCCC(C)CC (stereo unspecified)
[1]
Conditions	viscosity [mPa·s]
293.15 K	0.512
298.15 K	0.485
303.15 K	0.462
308.15 K	0.44
313.15 K	0.422

CC(=O)[O-].CCCC[NH3+] + O
Conditions	viscosity [mPa·s]
[2], 293.15 K, 101 kPa, x1 = 0.4013	53.35

CC(C)[C@H](N)C(=O)O + O
[2], 101 kPa
Conditions	viscosity
293.15 K, x1 = 0.005375	1.137 mPa·s
293.15 K, x1 = 0.007154	1.185 mPa·s
293.15 K, x1 = 0.008925	1.236 mPa·s
298.15 K, x1 = 0.0001	0.9194 mPa·s and 0.9194 mPa·s
298.15 K, x1 = 0.0004318	0.9217 mPa·s and 0.9217 mPa·s
298.15 K, x1 = 0.00045	0.8955 mPa·s
298.15 K, x1 = 0.0006308	0.9343 mPa·s and 0.9343 mPa·s
298.15 K, x1 = 0.0009	0.9038 mPa·s
298.15 K, x1 = 0.001048	0.9493 mPa·s and 0.9493 mPa·s
298.15 K, x1 = 0.00135	0.9129 mPa·s
298.15 K, x1 = 0.001416	0.9595 mPa·s and 0.9595 mPa·s
298.15 K, x1 = 0.001787	0.9689 mPa·s and 0.9689 mPa·s
298.15 K, x1 = 0.0018	0.9222 mPa·s
298.15 K, x1 = 0.002245	0.9318 mPa·s
298.15 K, x1 = 0.002695	0.9413 mPa·s
298.15 K, x1 = 0.003711	0.9967 mPa·s and 0.9967 mPa·s
298.15 K, x1 = 0.005362	1.026 mPa·s and 1.026 mPa·s
298.15 K, x1 = 0.007185	1.05 mPa·s and 1.05 mPa·s
303.15 K, x1 = 0.0004	0.803 mPa·s
303.15 K, x1 = 0.00045	0.8023 mPa·s
303.15 K, x1 = 0.0007	0.808 mPa·s
303.15 K, x1 = 0.0009	0.8101 mPa·s
303.15 K, x1 = 0.001	0.814 mPa·s and 0.821 mPa·s
303.15 K, x1 = 0.00135	0.8187 mPa·s
303.15 K, x1 = 0.0018	0.8274 mPa·s
303.15 K, x1 = 0.002245	0.8364 mPa·s
303.15 K, x1 = 0.002695	0.8456 mPa·s
303.15 K, x1 = 0.003592	0.861 mPa·s
303.15 K, x1 = 0.005375	0.8951 mPa·s
303.15 K, x1 = 0.007154	0.9297 mPa·s
303.15 K, x1 = 0.008925	0.9658 mPa·s
308.15 K, x1 = 0.0001	0.7889 mPa·s and 0.7889 mPa·s
308.15 K, x1 = 0.0004318	0.7978 mPa·s and 0.7978 mPa·s
308.15 K, x1 = 0.00045	0.7239 mPa·s
308.15 K, x1 = 0.0006308	0.8045 mPa·s and 0.8045 mPa·s
308.15 K, x1 = 0.001048	0.8147 mPa·s and 0.8147 mPa·s
308.15 K, x1 = 0.00135	0.7396 mPa·s
308.15 K, x1 = 0.001416	0.8249 mPa·s and 0.8249 mPa·s
308.15 K, x1 = 0.001787	0.8389 mPa·s and 0.8389 mPa·s
308.15 K, x1 = 0.0018	0.7478 mPa·s
308.15 K, x1 = 0.002245	0.7561 mPa·s
308.15 K, x1 = 0.002695	0.7648 mPa·s
308.15 K, x1 = 0.003711	0.8751 mPa·s and 0.8751 mPa·s
308.15 K, x1 = 0.005362	0.9003 mPa·s and 0.9003 mPa·s
308.15 K, x1 = 0.007185	0.9207 mPa·s and 0.9207 mPa·s
313.15 K, x1 = 0.00045	0.6573 mPa·s
313.15 K, x1 = 0.0009	0.6645 mPa·s
313.15 K, x1 = 0.00135	0.6722 mPa·s
313.15 K, x1 = 0.0018	0.6799 mPa·s
313.15 K, x1 = 0.001804	0.6773 mPa·s
313.15 K, x1 = 0.002245	0.6878 mPa·s
313.15 K, x1 = 0.002695	0.696 mPa·s
313.15 K, x1 = 0.003592	0.7008 mPa·s
313.15 K, x1 = 0.005375	0.7269 mPa·s
313.15 K, x1 = 0.007154	0.752 mPa·s
318.15 K, x1 = 0.0001	0.6823 mPa·s and 0.6823 mPa·s
318.15 K, x1 = 0.0004318	0.6985 mPa·s and 0.6985 mPa·s
318.15 K, x1 = 0.00045	0.6017 mPa·s
318.15 K, x1 = 0.0006308	0.7009 mPa·s and 0.7009 mPa·s
318.15 K, x1 = 0.001048	0.7128 mPa·s and 0.7128 mPa·s
318.15 K, x1 = 0.00135	0.6159 mPa·s
318.15 K, x1 = 0.001416	0.7308 mPa·s and 0.7308 mPa·s
318.15 K, x1 = 0.001787	0.7418 mPa·s and 0.7418 mPa·s
318.15 K, x1 = 0.0018	0.6233 mPa·s
318.15 K, x1 = 0.002245	0.631 mPa·s
318.15 K, x1 = 0.002695	0.6386 mPa·s
318.15 K, x1 = 0.003711	0.7743 mPa·s and 0.7743 mPa·s
318.15 K, x1 = 0.005362	0.7995 mPa·s and 0.7995 mPa·s
318.15 K, x1 = 0.007185	0.8105 mPa·s and 0.8105 mPa·s
323.15 K, x1 = 0.001804	0.5656 mPa·s
323.15 K, x1 = 0.003592	0.5841 mPa·s
323.15 K, x1 = 0.008925	0.6454 mPa·s

CCC(C)(C)O + O
[2], 298.15 K, 101 kPa
Conditions	viscosity [mPa·s]
x2 = 0.0042	3.548
x2 = 0.0429	3.711
x2 = 0.0863	3.875
x2 = 0.124	3.987
x2 = 0.1654	4.122
x2 = 0.197	4.218
x2 = 0.214	4.269
x2 = 0.2583	4.388
x2 = 0.2775	4.443

Cn1ccnc1 + O
viscosity [mPa·s], [2], 100 kPa
Conditions	298.15 K	308.15 K	318.15 K
x1 = 0.0499	1.322	1.024	0.821
x1 = 0.0997	1.733	1.313	1.031
x1 = 0.1496	2.155	1.611	1.239
x1 = 0.1996	2.583	1.893	1.451
x1 = 0.2991	3.413	2.423	1.806
x1 = 0.3993	3.978	2.789	2.034
x1 = 0.499	4.032	2.846	2.094
x1 = 0.5989	3.653	2.644	1.983
x1 = 0.6996	3.103	2.278	1.772
x1 = 0.7996	2.561	1.974	1.579
x1 = 0.8493	2.337	1.829	1.491
x1 = 0.8988	2.136	1.673	1.388
x1 = 0.9496	1.96	1.557	1.309

O=BOB([O-])OB([O-])OB=O.[Na+].[Na+] + O
viscosity [mPa·s], [2], 101 kPa
Conditions	x1 = 0.0009	x1 = 0.0018	x1 = 0.0022	x1 = 0.0027
298.15 K	0.9284	0.9681	0.9845	1.008
308.15 K	0.7526	0.7823	0.7945	0.8122
318.15 K	0.6216	0.6508	0.6626	0.6806

OCCN1CCOCC1 + O
[2], 101 kPa
Conditions	viscosity [mPa·s]
303.15 K, x1 = 0.8238	30.25
313.15 K, x1 = 0.1126	13.55

CN(C)c1ccccc1 + O=C1CCCCC1
viscosity [mPa·s], [2], 101 kPa
Conditions	303.15 K	308.15 K
x1 = 0.0699	1.724	1.569
x1 = 0.1269	1.658	1.502
x1 = 0.1906	1.587	1.432
x1 = 0.2652	1.512	1.353
x1 = 0.3251	1.457	1.299
x1 = 0.4012	1.395	1.245
x1 = 0.4852	1.336	1.195
x1 = 0.5602	1.292	1.161
x1 = 0.6421	1.254	1.136
x1 = 0.7014	1.231	1.124
x1 = 0.7745	1.209	1.114
x1 = 0.8512	1.192	1.113
x1 = 0.9212	1.18	1.112
